Reference: PMC7358525, “Characterization of PF-6142, a Novel, Non-Catecholamine Dopamine Receptor D1 Agonist, in Murine and Nonhuman Primate Models of Dopaminergic Activation” (Frontiers in Pharmacology, 2020)
Counter-ions that a name gives are not always drawn.

What was measured:
[1] = tested on: ketamine-induced working memory deficits; assay: Spatial delayed response (SDR) task in the nonhuman primate; type: in vivo, rhesus monkeys; conditions: ketamine 0.7-1.7 mg/kg i.m.; baseline 70.63 ± 1.75%
Description: This study was designed to test the hypothesis that PF-6142 would provide significant protection versus the ketamine-induced working memory deficits in nonhuman primates.
Rhesus monkeys were trained to stability on a variable SDR task in a sound-attenuated Wisconsin General Testing Apparatus ([Roberts et al., 2010]). Briefly, subjects observe while the investigator baiting one of two to seven wells with a highly preferred food reward and then covers all the wells with identical square plaques. An opaque screen is then lowered for one of five variable delays, which are pseudorandomized across trials within a session. Thus, delays are defined as 0–4 N, where “N” is a value that is animal dependent and ranges from 1 to 10 s depending upon the difficulty level of the task at which an animal reaches the criterion of stable performance. At the end of the delay period, the opaque screen is raised, and the animal must select the well that had been baited to obtain a reward. Each test session consists of 20 trials wherein both the baited well and delay length are pseudorandomized across trials. Before study initiation, all subjects were required to reach stability over a period of 10 consecutive test sessions, where stability was defined as an average of 65–75% correct. Stability was attained by varying the number of wells and the delay value for each animal. Subjects were originally trained on a two-well board with an N value of 1. […] Once stability was attained for a given number of wells and N value, that combination was kept constant throughout the course of the study ([Roberts et al., 2010]). The range of stable performance for the 10 subjects was two to five wells and an N value of 1–7 s (median, four-well testing board, N = 5 s). Data were transformed using logarithmic function [log(x+5)] to improve normality and analyzed using ANOVA.
Subjects received pretreatment with vehicle (sterile saline solution) or PF-6142 (0.0015, 0.015, 0.15 mg/kg, s.c.) 4 h before cognitive testing. They then received an intramuscular injection of either vehicle (sterile saline) or ketamine (0.7–1.7 mg/kg; Fort Dodge Co.) 0.25 h before cognitive testing. […] Thus, for the present study, one monkey received 0.7 mg/kg, seven monkeys received 1.0 mg/kg, and two monkeys received 1.7 mg/kg of ketamine. The vehicle/PF-6142 and vehicle/ketamine treatments were assigned using a randomized Latin square design with a total of eight conditions. Except for the vehicle/vehicle condition, there was a minimum 2-week washout period between all acute challenges during which time animals were required to “restabilize” to baseline performance levels, which was defined as at least three consecutive testing sessions wherein cognitive performance ranged between 65% and 75% correct.

[2] = tested on: ketamine-induced working memory deficits; assay: Ketamine-disrupted radial arm maze (RAM); type: in vivo, rat; conditions: ketamine 10 mg/kg s.c.
Description: Two cohorts of adult male Long-Evans rats (N=30 each) were trained in a spatial working memory task on an eight-arm RAM, (Pathfinder Maze System, Lafayette Instrument Co., Lafayette, IN), using a procedure adapted from [Ward et al. (1990)] and described in detail in [Strick et al. (2011)]. Briefly, rats were food-restricted to provide motivation to perform the RAM task. The task requires that the animals enter each arm to retrieve a reinforcement food pellets, using spatial cues in the room to remember which arms of the maze they have previously entered. Rats were individually placed on the maze and allowed to navigate until all eight arms were entered and the pellets were consumed or until 30 choices were made, or until 5 min had elapsed. Entry into an arm previously entered was counted as an error. […] Training continued until all animals had reached the training criterion, defined as two or fewer errors on two consecutive days. […] Performance on the maze was evaluated 30 min later by an observer that was blinded to treatments.
The R 3.0.1 statistical software was used to compare the error rate data. The effects of treatment and the interaction on the error rate were assessed using a one-way mixed model ANOVA using generalized least squares method from lme4 library. […]

Structure (SMILES): CNC1(c2ccccc2Cl)CCCCC1=O (centres unmarked) [ketamine, ketamine hydrochloride, reference compound]
- percent correct on the SDR task [1]: 28.75 ± 2.45%
- error rate (errors/choices) in RAM [2]: robust increase in error rate
